Data taken from US20130123326A1, “ALLOSTERIC BINDING COMPOUNDS” (REGION MIDTJYLLAND, priority 2009, published 2013).
pEC50: −log10 of the molar value.

Columns and labels:
[1] = molecular target: T1, hSERT (Homo sapiens, UniProt P31645); test: Dissociation assay with [3H]-citalopram and hSERT membrane preparations; format: binding
Method: Dulbecco's modified Eagle's medium, fetal bovine serum, trypsin, and penicillin/streptomycin were purchased from Invitrogen. Cell culture flasks were from NUNC. MicroScint-20 scintillation mixture was from Packard. [^3H]-Citalopram (85 Ci/mmol) was a gift from H. Lundbeck A/S (Valby, Denmark). Fugene-6 transfection reagent was from Roche Molecular Biochemicals. All chemicals are commercially available. Stock solutions of the allosteric ligands were prepared as 100 mM in EtOH.
The pcDNA3 plasmid vector containing the hSERT gene was used for transfection.
17.5 μl Fugene-6 (Roche Molecular Biochemicals) were mixed with 280 μl Dulbecco's modified Eagle's medium, and incubated at room temperature for 5 minutes. 10 μg of hSERT plasmid were added and the mixture was further incubated at least 15 minutes. […] The cells were plated at 35% confluency in a 150 mm dish, and grown at 37° C. for 64 h. Prior to harvesting the dish was rinsed in PBS. Cells were harvested with a cell scraper in buffer 1 (50 mM Tris-base, 150 mM NaCl, 20 mM EDTA, pH 7.4). After centrifugation (3000 g at 4° C. for 10 mins), cells were suspended and homogenized with an IKA Ultra-Turrax from Rose Scientific Ltd (Edmonton, Alberta, Canada) for 20 s in buffer 1. Membranes were pelleted by ultracentrifugation (12 000 g at 4° C. for 15 min) and homogenization was repeated in buffer 1. Finally, after ultracentrifugation (12000 g, 4° C., 15 min) membranes were resuspended in 1 ml buffer 3 (50 mM Tris-base, 120 mM NaCl, 5 mM KCl, pH 7.4) and stored at −80° C.
Dissociation Assay with [^3H]-Citalopram and Membrane Preparations.
SERT-[^3H]-citalopram complex was formed by incubating hSERT membrane preparation and radioligand in buffer 3 during a 60 min incubation at 4° C. Radioligand was present at a concentration 10 times the Kd value. The time kinetic of dissociation was followed by adding 10 μL complex solution to 250 μL buffer 3 in 96-well plates and incubating subsequently for increasing time intervals at RT. Reactions were terminated by filtration through GF/C glass-fibre filters (Unifilter, Perkin Elmer Life Sciences), preincubated with 40 μl 0.5% polyethyleneimine, using a Pachard Bell cell harvester, and subsequently washed three times with water. Filters were soaked in 40 μl Microscint 20 scintillation liquid (Pachard Bell). Bound radioactivity was determined by direct counting of plates using a Packard Bell microplate scintillation counter. Dissociation curves were obtained by plotting residual binding vs. time of dissociation.
The concentrations of allosteric compound in the dissociation buffer range from 400-0.2 μM.
The relative off-rate is expressed as the off-rate of the radioligand at a given concentration of allosteric compound, normalized to the off-rate of radioligand in the absence of allosteric compound.
The maximum stabilization factor is defined as the estimated upper plateau of the sigmoidal response curve, and describes how many folds the off-rate of bound radioligand from SERT can be attenuated in the presence of increasing concentrations of allosteric compound in the dissociation buffer.

[2] = molecular target: T1, hSERT; test: 5-HT uptake inhibition assay: allo-ligand potentiating effect on uptake inhibition by S-citalopram; format: cell-based; settings: [3H]5-HT uptake, hSERT-transfected HEK-293-MSR cells; allosteric ligand in the 600 nM range
Method: Cell lines expressing the serotonin transporter constitute the most popular in vitro screening system for classical antidepressants, which will inhibit the transporter in uptake of serotonin. The inhibitory potency of the allosteric ligands is determined and expressed as an IC50 value in that a lowering of the IC50 values, when the concentration of the allosteric ligands increases, indicates an add-on inhibitory effect due to the presence of the allosteric ligand.
Transfection of HEK-293-MSR Cell Cultures
For transfections, 0.2 μg of pcDNA3 plasmid vector containing a hSERT cDNA insert and 0.4 μl of Fugene6 (Roche) were used per cm2 of plating area. Plasmid and Fugene6 were mixed with DMEM according to the manufacturer's recommendations. HEK-293-MSR cells were treated with trypsin, suspended in growth media and added to the Plasmid/Fugene6 mixture. Transfected cells were dispensed into white 96-well growth plates (Corning) or 150 mm cell culture discs at 60-80% confluence.
5-HT Uptake Inhibition Assays
Uptake assays were performed 40-50 hours after transfection. […] Cells were lysed in 50 μl MicroScint-20 (Packard), and the radiolabeled serotonin accumulated in the cells was quantified in a Packard TopCounter NXT microplate scintillation counter. Exact [^3H]5-HT reaction concentrations were determined in a Packard TRI-CARB® Liquid scintillation analyzer. […]

T1 sequence (P31645 whole entry): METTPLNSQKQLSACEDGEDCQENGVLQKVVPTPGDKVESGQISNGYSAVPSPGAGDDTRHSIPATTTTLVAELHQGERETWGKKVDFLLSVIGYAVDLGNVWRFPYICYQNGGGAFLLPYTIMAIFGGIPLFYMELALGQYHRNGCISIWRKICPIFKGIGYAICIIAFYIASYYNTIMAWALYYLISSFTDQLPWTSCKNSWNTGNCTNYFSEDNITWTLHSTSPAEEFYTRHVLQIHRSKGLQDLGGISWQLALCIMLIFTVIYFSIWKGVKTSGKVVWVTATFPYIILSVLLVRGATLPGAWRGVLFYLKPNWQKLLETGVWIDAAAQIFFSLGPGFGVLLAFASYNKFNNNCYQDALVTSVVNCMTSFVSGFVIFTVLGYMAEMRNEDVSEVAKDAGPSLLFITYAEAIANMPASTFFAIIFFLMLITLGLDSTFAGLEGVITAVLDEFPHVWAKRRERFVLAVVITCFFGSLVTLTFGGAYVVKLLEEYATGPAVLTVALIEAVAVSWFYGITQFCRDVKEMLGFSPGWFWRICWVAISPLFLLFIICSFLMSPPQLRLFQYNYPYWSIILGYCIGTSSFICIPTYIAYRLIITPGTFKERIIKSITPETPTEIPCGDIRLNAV

pEC50 ([1]; concentration of allosteric compound inducing 50% attenuation of the off-rate of the radioligand from SERT, 10 μM fluoxetine in dissociation buffer, read-out: EC50): 6.15
Max. Stability (maximum stabilization factor) ([1]; estimated upper plateau of sigmoidal response curve: how many folds the off-rate of bound radioligand from SERT can be attenuated, N/A = No activity): 27
reduction of S-citalopram IC50 values (add-on effect) [2]: up to 2 fold
SMILES: N#CCSc1cccc2ccccc12 [Example 36, (Naphthalen-1-Ylsulfanyl)-Acetonitrile]
